In PMC7038073, “Substituted Piperazines as Novel Potential Radioprotective Agents” (Molecules, 2020):
Counter-ions that a name gives are not always drawn.

How the values were obtained:
Assay type in all cases: cell-based
[1] = WST-1 cytotoxicity test, Jurkat; settings: human, Jurkat cells, 48 h, WST-1, mean ± SD of three experiments, read-out: relative viability (%) compared to untreated control
Method: (§1) In this study, the cytotoxic effects of nine new compounds (2, 3, 4, 5, 6, 7, 8, 9, 10) were tested on 10 human cell lines (nine cancer and one non-cancer cell line). The cell lines were treated with each compound at concentrations of 10 µM and 100 µM for 48 h. The proliferation capacity of the treated cells was determined by WST-1 test and compared against the proliferation rate of the untreated control cells (100%).
(§2) The cell lines Jurkat, MOLT-4, A2780, A549, HT-29, PANC-1, HeLa, MCF-7, SAOS-2, and MRC-5 (all purchased from Sigma Aldrich, Czech Republic) were included in this study. All cell lines were maintained according to the provider’s guidelines, and plated and treated in 96-well plates (500 to 30 × 10^3 cells per well). The tested compounds 2, 3, 4, 5, 6, 7, 8, 9, and 10 were dissolved in 0.1% DMSO and kept in 10 mM stock solutions. Before use, the stock solution was diluted in culture media at ratios of 1:100 and 1:1000. The studied cell lines were treated with the compounds 2, 3, 4, 5, 6, 7, 8, 9, and 10 at concentrations of 10 and 100 µM for 48 h. Control cells were tested in culture media with and without DMSO (0.1%). The cells were also treated with 1 µM doxorubicin as a cytotoxicity control.
(§3) The WST-1 (2-(4-iodophenyl)-3-(4-nitrophenyl)-5-(2,4-disulfophenyl)-2H-tetrazolium, monosodium salt) test (Roche, Mannheim, Germany) was used according to the manufacturer’s protocol to determine cell viability in all 10 cell lines 48 h after treatment with the tested compounds. The cells were analyzed in a Tecan Infinite M200 spectrometer (Tecan Group, Männedorf, Switzerland) at 440 nm.

[2] = WST-1 cytotoxicity test, MOLT-4; settings: human, MOLT-4 cells, 48 h, WST-1, mean ± SD of three experiments, read-out: relative viability (%) compared to untreated control; for viability at 48 h, 10 µM: MOLT-4, 10 µM; for viability at 48 h, 100 µM: MOLT-4, 100 µM
Method: as §1, §2, §3

[3] = WST-1 cytotoxicity test, HT-29; settings: human, HT-29 cells, 48 h, WST-1, mean ± SD of three experiments, read-out: relative viability (%) compared to untreated control; for viability at 48 h, 10 µM: HT-29, 10 µM; for viability at 48 h, 100 µM: HT-29, 100 µM
Method: as §1, §2, §3

[4] = WST-1 cytotoxicity test, A2780; settings: human, A2780 cells, 48 h, WST-1, mean ± SD of three experiments, read-out: relative viability (%) compared to untreated control; for viability at 48 h, 10 µM: A2780, 10 µM; for viability at 48 h, 100 µM: A2780, 100 µM
Method: as §1, §2, §3

[5] = WST-1 cytotoxicity test, MCF-7; settings: human, MCF-7 cells, 48 h, WST-1, mean ± SD of three experiments, read-out: relative viability (%) compared to untreated control; for viability at 48 h, 10 µM: MCF-7, 10 µM; for viability at 48 h, 100 µM: MCF-7, 100 µM
Method: as §1, §2, §3

[6] = WST-1 cytotoxicity test, SAOS-2; settings: human, SAOS-2 cells, 48 h, WST-1, mean ± SD of three experiments, read-out: relative viability (%) compared to untreated control; for viability at 48 h, 10 µM: SAOS-2, 10 µM; for viability at 48 h, 100 µM: SAOS-2, 100 µM
Method: as §1, §2, §3

Row | SMILES | viability at 48 h, 10 µM [1] [%] | viability at 48 h, 100 µM [1] [%] | viability at 48 h, 10 µM [2] [%] | viability at 48 h, 100 µM [2] [%] | viability at 48 h, 10 µM [3] [%] | viability at 48 h, 100 µM [3] [%] | viability at 48 h, 10 µM [4] [%] | viability at 48 h, 100 µM [4] [%] | viability at 48 h, 10 µM [5] [%] | viability at 48 h, 100 µM [5] [%] | viability at 48 h, 10 µM [6] [%] | viability at 48 h, 100 µM [6] [%]
1 | COc1ccc(NCCCN2CCN(CCO)CC2)cc1.Cl.Cl.Cl [Compound 7, 2-(4-(3-((4-methoxyphenyl)amino)propyl)piperazin-1-yl)ethanol trihydrochloride] | 100 ± 5 | 96 | 93 ± 3 | 99 ± 3 | 96 ± 3 | 118 ± 2 | 94 ± 3 | 91 ± 2 | 105 ± 6 | 104 ± 6 | 102 ± 7 | 109 ± 2
2 | Cl.Cl.Cl.OCCN1CCN(CCCNc2ccccc2)CC1 [Compound 5, 2-(4-(3-(phenylamino)propyl)piperazin-1-yl)ethanol trihydrochloride] | 98 ± 4 | 98 ± 3 | 93 ± 9 | 104 ± 7 | 91 ± 2 | 109 ± 2 | 93 ± 5 | 105 ± 8 | 101 ± 6 | 106 ± 1 | 96 ± 4 | 111 ± 6
3 | Cc1cc(OCC(O)CN2CCN(CCO)CC2)ccc1Cl.Cl.Cl (stereo not drawn) [Compound 4, 1-(4-chloro-3-methylphenoxy)-3-(4-(2-hydroxyethyl)piperazin-1-yl)propan-2-ol dihydrochloride] | 105 ± 5 | 89 ± 1 | 88 ± 6 | 92 ± 6 | 100 ± 2 | 83 ± 4 | 98 ± 2 | 89 ± 1 | 105 ± 4 | 90 ± 3 | 99 ± 6 | 88 ± 4
4 | Cl.Cl.OC(CNc1ccccc1)CNc1ccccc1 [Compound 9, 1,3-bis(phenylamino)propan-2-ol dihydrochloride] | 104 ± 5 | 79 ± 11 | 103 ± 8 | 71 ± 4 | 102 ± 5 | 148 ± 2 | 90 ± 3 | 64 ± 5 | 100 ± 4 | 98 ± 11 | 106 ± 2 | 90 ± 4
5 | OCCN1CCN(CC(O)CN2CCN(CCO)CC2)CC1 [Compound 8, 1.3-bis [4-(2-hydroxyethyl)piperazin-1-yl)propan-2-ol tetrahydrochloride] | 103 ± 5 | 96 ± 13 | 106 ± 8 | 81 ± 6 | 101 ± 1 | 154 ± 11 | 104 ± 4 | 76 ± 10 | 101 ± 5 | 96 ± 7 | 102 ± 6 | 87 ± 7
6 | Cl.Cl.Cl.OCCN1CCN(CCCNc2cccc3ccccc23)CC1 [Compound 6, 2-(4-(3-(naphthalen-1-ylamino)propyl)piperazin-1-yl)ethanol trihydrochloride] | 101 ± 1 | 93 ± 2 | 90 ± 7 | 112 ± 4 | 86 ± 4 | 97 ± 4 | 74 ± 3 | 95 ± 4 | 102 ± 8 | 94 ± 9 | 94 ± 6 | 111 ± 4
7 | Cl.Cl.Cl.OCCN1CCN(CC(O)CNc2ccccc2)CC1 (stereo not drawn) [Compound 10, 1-(phenylamino]-3-[4-(2-hydroxyethyl)piperazin-1-yl)propan-2-ol trihydrochloride] | 108 ± 7 | 95 ± 4 | 112 ± 6 | 100 ± 4 | 104 ± 11 | 113 ± 2 | 103 ± 6 | 96 ± 2 | 98 ± 2 | 96 ± 6 | 97 ± 6 | 102 ± 2
